The source of these data is PubChem BioAssay AID179 (DTP/NCI, 2004).

Activity calls are given as the source filed them.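 How the source made its calls: active means compounds giving half or more protection of infected cells from virus-caused growth loss, again on retest; inactive means the rest.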 Where a SMILES comes first, the peptide text is derived from it. Bounds are passed on as bounds.

The test system of this assay is CEM cells HIV-1 protection, formazan growth assay. Briefly: NCI AIDS Antiviral Assay. The note with it: for IC50: measured here: growth of uninfected CEM cells. An outline of the steps: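 Screen of anti-HIV-1 activity in human CEM cells using a formazan-based growth measurement at five drug concentrations. Hits with 50% or greater protection were repeated, and confirmation required reproducible complete protection.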

`CC1(C)CCC2(C)N(c3ccccc3)C(=O)ON12` (centres undefined): the EC50 was above 200 µM and the concentration for half-maximal inhibition (IC50) was above 200 µM.

Regarding `CSC1=C(C(=O)Nc2ccccc2)C(N)=NC1=O`, the EC50 was above 200 µM and the IC50 was 141 µM.

`COc1cc2c(cc1OC)C1Cc3ccccc3CN1CCC2` (centres undefined): the EC50 is above 200 µM and the concentration for half-maximal inhibition (IC50) came to 141 µM.

In the case of `C[N+]1(C)CCCC1C(=O)[O-]` (centres undefined), the EC50 was above 1740 µM and the IC50 is above 1740 µM.

For `CCOC(C)C(=O)OC[C@@H](C(=O)OC1C[C@@H]2[C@@H]3O[C@@H]3[C@H](C1)[N+]2(C)C)c1ccccc1` (some centres undefined), the EC50 was above 200 µM and the half-maximal inhibitory concentration (IC50) was above 200 µM.

On to `Cn1c(N)c2c3c(sc2nc1=O)CCCC3`, for which the EC50 was 77.6 µM and the half-inhibitory concentration (IC50) was above 100 µM.

With `O=C1CSC(c2ccc(Cl)cc2)N1c1ccc(-n2c(-c3ccccc3)nc3ccccc3c2=O)cc1` (centres undefined), the EC50 is above 200 µM and the IC50 amounted to 67.6 µM.

As to `COc1cc(C2C(C(=O)Nc3ccccc3)=C(C)NC(C)=C2C(=O)Nc2ccccc2)ccc1O`, the outcome was inactive.

With `O=C(c1ccccc1)C(c1ccccc1)C1(O)C(=O)Nc2ccc(Br)cc21` (centres undefined), the EC50 was above 85.1 µM and the half-maximal inhibitory concentration (IC50) is above 85.1 µM.

As for `COC(=O)CC1C(C)(C)C(=O)C2CC3=C4CC(=O)OC(c5ccoc5)C4(C)CCC3C1(C)C2=O` (centres undefined), the EC50 is above 55 µM and the IC50 was above 55 µM.

As to `COc1cc(-c2ccc(N=Nc3c(S(=O)(=O)O)cc4cc(S(=O)(=O)O)cc(N)c4c3O)c(OC)c2)ccc1N=Nc1c(S(=O)(=O)O)cc2cc(S(=O)(=O)O)cc(N)c2c1O`, the outcome was active.

In the case of `O/N=C1/C(=C/c2ccc3c(c2)OCO3)CCCC1C(NO)c1ccc2c(c1)OCO2` (centres undefined), the EC50 is above 12.6 µM and the IC50 was above 12.6 µM.

Turning to `Cc1ccccc1N1C(N)=C(C#N)C(C#N)(C#N)C1c1ccccc1` (centres undefined), the EC50 is above 200 µM and the IC50 turned out to be 12 µM.

`OC(CC(O)(C(F)(F)F)C(F)(F)F)c1ccc(C(O)CC(O)(C(F)(F)F)C(F)(F)F)cc1` (centres undefined): the EC50 is above 200 µM and the concentration for half-maximal inhibition (IC50) is 10.2 µM.

For `c1ccc(N2N=NC3C4CC(C5COCC54)C32)cc1` (centres undefined), the EC50 was above 200 µM and the IC50 was above 200 µM.

For the compound `C/C=C(\C1CC2c3[nH]c4ccccc4c3CCN2C(=O)C1C(=O)OCC)[Si](C)(C)C` (centres undefined), the EC50 was above 12.3 µM and the concentration for half-maximal inhibition (IC50) was above 12.3 µM.

As for `CO[C@H]1/C=C/O[C@@]2(C)Oc3c(C)c(O)c4c(O)c(c(/C=N/N5C(C)CN(Cc6ccc(C#N)cc6)CC5C)c(O)c4c3C2=O)NC(=O)/C(C)=C\C=C\[C@H](C)[C@H](O)[C@@H](C)[C@@H](O)[C@@H](C)[C@H](OC(C)=O)[C@@H]1C` (some centres undefined), the EC50 is above 200 µM and the half-inhibitory concentration (IC50) turned out to be 9.12 µM.

Take `Cn1c(=O)oc2cc(C(=S)N3CCCCC3)ccc21`: the EC50 was above 200 µM and the IC50 was above 200 µM.

For `O=S(=O)(c1ccccc1)N1CC2C3C=CC(C3)C2C1` (centres undefined), the EC50 was above 200 µM and the IC50 amounted to 145 µM.

`CN1C(=O)C(O)(Cc2nccc3ccccc23)c2ccccc21` (centres undefined): the EC50 is above 200 µM and the IC50 worked out at 36.3 µM.

For `O=c1cc(-c2ccccc2)ss1`, the EC50 was above 200 µM and the IC50 amounted to 105 µM.

On to `CC1(Br)C(=O)C(O)=C(Br)C1=O` (centres undefined), for which the EC50 is above 200 µM and the IC50 was determined as 19.5 µM.

Consider `C1COC2SC3=C(SC(=C4SC5=C(SCCS5)S4)S3)SC2O1` (centres undefined), for which the EC50 is above 100 µM and the IC50 is above 100 µM.

Consider `O=C1c2ccccc2C2(O)N(c3ccccc3)C(=S)N(c3ccccc3)C12O` (centres undefined), for which the EC50 was above 646 µM and the half-maximal inhibitory concentration (IC50) came to 316 µM.

In the case of `Cc1ccc2c(c1)C(=O)c1[nH]c3ccc(F)cc3c1CO2`, the EC50 is above 200 µM and the IC50 was above 200 µM.

With `CCC[n+]1nc2ccccc2c(=Nc2ccccc2[N+](=O)[O-])[n-]1`, the EC50 is above 23.4 µM and the IC50 is above 23.4 µM.

With `CCC(=O)c1ccc2c(c1)N(CCCN1CCN(CCO)CC1)c1ccccc1S2`, the EC50 is above 200 µM and the IC50 came to 9.33 µM.

Consider `CN(C)CC1Cc2ccsc2C1=O` (centres undefined), for which the EC50 is above 155 µM and the IC50 worked out at 2.63 µM.

Turning to `Nc1c(S(=O)(=O)c2ccc(Cl)cc2)c2nc3ccccc3nc2n2ccnc12`, the EC50 is 151 µM and the half-maximal inhibitory concentration (IC50) is above 200 µM.

Take `CCN(CC)C(=O)CCn1ccc(=O)[nH]c1=O`: the EC50 was above 1050 µM and the IC50 is above 1050 µM.

Consider `CCC(CCCCC1CC[C@H]2CC(=O)C[C@@H]12)OC` (some centres undefined), for which the EC50 was above 200 µM and the half-maximal inhibitory concentration (IC50) stood at 107 µM.

With `Cc1c(-c2ccccc2)sc(/N=C/c2cc(Br)cc(Br)c2O)c1C#N`, the EC50 was above 20 µM and the 50% inhibitory concentration (IC50) came out at 0.708 µM.

With `Cc1cccc(NC(=O)C(=O)C(C2OC(=O)c3ccccc32)[N+](=O)[O-])c1C` (centres undefined), the outcome was inactive.

On to `S=C(Oc1ccccc1)SSC(=S)Oc1ccccc1`, for which the EC50 was above 200 µM and the IC50 stood at 19.1 µM.

Turning to `CO/C(=N\N=C\c1cccc(Cl)c1)c1ccncc1`, the EC50 was above 132 µM and the concentration for half-maximal inhibition (IC50) was found to be 83.2 µM.

For `O=C1CCCN1C(=O)CS(=O)(=O)c1ccccc1`, the EC50 was above 200 µM and the IC50 is above 200 µM.

As for `COc1c(C)c(-c2c(C)c(OC)c3c(c2OC)OCO3)c(OC)c2c1OCO2`, the EC50 is above 200 µM and the 50% inhibitory concentration (IC50) came to 170 µM.

On to `CC1(CO)C(O)CCC2(C)C1CCC1CC3CC12CCC3(O)CO` (centres undefined), for which the EC50 was above 275 µM and the IC50 came out at 0.398 µM.

Take `[O-][n+]1cc(SCc2ccccc2)ncc1SCc1ccccc1`: the EC50 is above 200 µM and the IC50 is above 200 µM.

Consider `Cc1ccccc1C1CC(=O)CC(c2ccccc2C)C12C(=O)NC(=O)NC2=O` (centres undefined), for which the EC50 is above 200 µM and the half-maximal inhibitory concentration (IC50) turned out to be 105 µM.

For the compound `C[C@]12CCC(=O)C(OC(=O)c3ccc([N+](=O)[O-])cc3)=C1CCC2=O`, the outcome was inactive.

On to `C=CCP(=O)(CC=C)C(Cl)Cl`, for which the EC50 was above 200 µM and the IC50 was above 200 µM.

As for `COc1ccc(CN=C(N)N)c2ccccc12`, the EC50 is above 200 µM and the IC50 is 5.13 µM.

With `S=C(Nc1ccc2c(c1)oc1ccccc12)c1cccnc1`, the EC50 is 67.6 µM and the IC50 is above 200 µM.

For `COC(=O)[C@]1(Cc2ccc3ccccc3c2)CCCCCCN1C(=O)c1ccccc1`, the result was inactive.

Take `CC1(C)COC(c2cccc(C3=NC(C)(C)CO3)n2)=N1`: the EC50 is above 26.3 µM and the IC50 is above 26.3 µM.

Regarding `Cn1cc/c(=N\N=c2/ccn(C)c3ccccc23)c2ccccc21`, the EC50 is above 115 µM and the 50% inhibitory concentration (IC50) stood at 5.01 µM.

On to `Nc1ccc(N=Nc2ccc(-c3ccc(N=Nc4ccc(N)c5cc(S(=O)(=O)O)ccc45)cc3)cc2)c2ccc(S(=O)(=O)O)cc12`, for which the result was active.

Consider `CCCCCCCCCCCCNC(=O)c1ccc([Se][Se]c2ccc(C(=O)NCCCCCCCCCCCC)cc2)cc1`, for which the EC50 is above 7.08 µM and the IC50 is above 7.08 µM.

Regarding `COc1ccc(NC(=O)CC/C(CC(=O)C(C)(C)C)=N\NC(=O)C(=O)NN)cc1`, the outcome was inactive.

As to `Cc1cn(CC(CO)CCO)c(=O)[nH]c1=O` (centres undefined), the EC50 is above 1100 µM and the half-inhibitory concentration (IC50) is above 1100 µM.

On to `Cc1ncc([N+](=O)[O-])n1CCNC(=O)Cn1c([N+](=O)[O-])cnc1C`, for which the EC50 is above 200 µM and the 50% inhibitory concentration (IC50) is above 200 µM.

For the compound `CC(C)[C@@H](C)/C=C/[C@@H](C)C1CC2C3=CC=C4C[C@@H](OC5OCC(O)C6OC(=O)C(=O)OC56)CC[C@]4(C)C3CC[C@]2(C)C1` (some centres undefined), the EC50 was above 200 µM and the IC50 worked out at 11 µM.

`CN1CN(c2ccccc2)C2(CCN(CCc3csc4ccccc34)CC2)C1=O`: the EC50 is above 200 µM and the IC50 is 28.8 µM.

Take `Nc1nc2c(ncn2C2OC(CO)CC2F)c(=O)[nH]1` (centres undefined): the result was active.

As for `COc1cc2c(cc1OC)[C@@](C)(C(O)C(O)C(C)(C)O)NCC2` (some centres undefined), the EC50 is above 200 µM and the IC50 is above 200 µM.

In the case of `CCN1C[C@]2(C)CC[C@H](OC)C34C1C([C@H](OC(C)=O)[C@@H]32)[C@@]1(OC)C[C@H](OC)[C@H]2C[C@@H]4[C@@H]1[C@H]2O`, the EC50 is above 77.6 µM and the IC50 is above 77.6 µM.

With `O=C1C=CC2O[C@H](c3ccccc3)[C@@H](O)C2O1` (some centres undefined), the EC50 is above 1070 µM and the IC50 came to 6.46 µM.

As for `Cc1cc(=O)[nH]c(NNC(C#N)c2cccc([N+](=O)[O-])c2)n1` (centres undefined), the EC50 was above 45.7 µM and the IC50 is above 45.7 µM.

For the compound `COc1ccc2c(c1)OCc1c-2oc2ccccc2c1=O`, the EC50 is above 100 µM and the IC50 is above 100 µM.

As to `NCCCCC(NC(=O)C(CO)NC(=O)C(N)Cc1cnc[nH]1)C(=O)NC(Cc1ccccc1)C(=O)NC(Cc1c[nH]c2ccccc12)C(=O)NC(Cc1c[nH]c2ccccc12)C(N)=O` (centres undefined) (H-HSKFWW-NH2; configuration not given here), the EC50 is above 50.1 µM and the IC50 is above 50.1 µM.

Regarding `CC(C)=CCC[C@@H](C)[C@H]1CC[C@@]2(C)[C@@H]3CC[C@H]4C(C)(C)[C@@H](O)CC[C@@]45C[C@@]35CC[C@]12C`, the EC50 is above 200 µM and the half-maximal inhibitory concentration (IC50) is 126 µM.

In the case of `Cc1c(NC(=O)Nc2ccc(F)cc2)c(=O)n(-c2ccccc2)n1C`, the EC50 is above 200 µM and the IC50 is above 200 µM.

As to `C(=N\OCc1ccccc1)/c1ncccc1C1OCCO1`, the EC50 was above 331 µM and the IC50 stood at 309 µM.

For the compound `OC(C1CCCCCCCCCC1)C(O)C1CCCCCCCCCC1` (centres undefined), the EC50 was above 200 µM and the IC50 is above 200 µM.

Take `C=CCOc1ccc(/C(N=Nc2ccccc2)=N/NC(=O)c2ccccc2)cc1OC`: the EC50 was above 200 µM and the 50% inhibitory concentration (IC50) was found to be 107 µM.

Regarding `C=CCC1(OC(C)=O)C2OC(=O)C1(O)OCC2O` (centres undefined), the EC50 was above 200 µM and the half-maximal inhibitory concentration (IC50) was above 200 µM.

As to `CNC1C(OC2C(OC3C(O)C(O)C(N=C(N)N)C(O)C3N=C(N)N)OC(C)C2(O)C=O)OC(CO)C(OC2OC(CO)C(O)C(O)C2O)C1O` (centres undefined), the outcome was inactive.

As for `Cc1ccccc1N1C(=O)[N+]2(CCCCC2)N=C1[O-]`, the EC50 is above 955 µM and the 50% inhibitory concentration (IC50) was determined as 295 µM.

What is called EC50 is the midpoint of the concentration-response curve. One may read the IC50 as the concentration that gives 50% inhibition.
